Results taken from patent US20140044656A1, “NOVEL USE” (DSM IP ASSETS B.V., priority 2011, published 2014).

Key:
[1] = Discoloration experiment (Pantone Color Index of aqueous solution at different pH); type: physicochemical; conditions: for Pantone Index: 1% solution in water
Description: Steviol (87%) was dissolved at 1 wt.-% in water and the pH adjusted to different values as shown below. At pH 9, the solution turns brown within 1 day. However, the more acidic the pH, the less discoloration was observed. The color was determined visually using the Pantone Color Index. Pantone Colours index of 1% Steviol solution in water at different pH: […]

[2] = system: Normal human melanocytes NHM (HEMn-MP, Clonetics); experiment: Quantification of melanin synthesis in cell culture; type: cell-based; conditions: for total melanin content versus control (100%): three days, absorbance at 405 nm
Description: Normal human melanocytes NHM (HEMn-MP, Clonetics) were seeded in 96 well cell culture plates and grown to sub-confluence for two days in a mixture of M2-Medium (Clonetics) and Medium (Promocell). Culture medium was exchanged with Culture Medium containing Steviol (96%) and melanogenesis progressed for another three days at 37° C. with another medium exchange on day two. Including cell layer and culture supernatant the total melanin was extracted using 1.7M KOH with vigorous shaking at RT. The total melanin content was determined at 405 nm in an absorbance plate reader versus a control (100%)

Pantone Index ([1]; pH 6, visual): 155
Pantone Index ([1]; pH 6.5, visual): 155
Pantone Index ([1]; pH 7, visual): 158
Pantone Index ([1]; pH 9, visual): 160
time until solution turns brown ([1]; 1 wt.-% in water, pH 9): ≤ 1 days
SMILES: C=C1C[C@@]23CC[C@H]4[C@@](C)(CCC[C@@]4(C)C(=O)O)[C@@H]2CC[C@]1(O)C3 [Steviol, steviol]
effect on the production of melanin in human melanocytes ([2]; 0.25-1 microM): clear dose dependent positive effect
total melanin content versus control (100%) ([2]; 0.25 microM): 109%
total melanin content versus control (100%) ([2]; 0.5 micro M): 124%
total melanin content versus control (100%) ([2]; 1 micro M): 130%
potency relative to the positive control Glycyrrhizin ([2]; melanin production in human melanocytes): about 1000 times
